Experiments:
[1] = system: biofilm (sessile organisms) on 1018 carbon steel biostuds; experiment: Dynamic flow loop test, sessile kill study and biofilm regrowth; type: cell-based; details: within 24 hours
Description: (§1) Evaluation of the biocide compositions disclosed herein was performed through a dynamic flow loop test where both planktonic and sessile organisms could be monitored. To start this testing, fluid from the field, as well as cultured organisms from the field, were placed into the system and allowed to grow for approximately 7 weeks, providing a mature biofilm that can then be challenged by the biocide treatment.
(§2) The test system holds approximately 1.5 liters of fluid that are continually circulated over 1018 carbon steel biostuds located in the 6 o'clock position of a modified Robbin's device. The device holds a maximum of eight biostuds in the 6 o'clock position. The production fluid was pumped through the system at a rate of approximately 3.1 gallons per minute, which allows for deposition of microorganisms and solids onto the biostuds. The health of the microbial population was monitored weekly during the biofilm growth period using ATP quantification.
(§3) After concluding the establishment of a mature biofilm, the sessile kill study was initiated. […] A baseline reading was taken, during all of the studies, prior to the addition of the chemical to the individual flow loop. […]
The initial data point before treatment is set to 100% and all other readings are reported as a percent change compared to the baseline. […]

planktonic organisms = experiment: Dynamic flow loop test, planktonic kill after 4 hour contact time; type: cell-based; details: 112.5 ppm active THPS
Description: as §1, §2, §3
Planktonic kill in the dynamic flow loops was also evaluated immediately after a 4 hour contact time with the biocide.

tetrakis(hydroxymethyl)phosphonium sulphate [THPS]
Biofilm size after treatment compared to before treatment [1]: larger than it was before treatment | Planktonic kill, % reduction (planktonic organisms): 81.8%
